Measurements as given in US20240058464A1 (Fortis Therapeutics, Inc., priority 2021, published 2024).

Assays:
CD46 expression [1] = assay: CD46 expression by RNA-sequencing in unpaired pre-treatment and post-treatment tumor biopsies; assay type: in vivo, human; details: for CD46 expression Post: post-treatment biopsies
CD46 expression [2] = assay: CD46 expression by RNA-sequencing in paired tumor biopsies before and after therapy; details: for CD46 expression diff (post minus pre) / Percent Change in CD46 expression / CD46 expression, Post-Treatment Biopsy / CD46 expression, Pre-Treatment Biopsy: paired biopsies; for CD46 expression, Post-Treatment Biopsy / CD46 expression, Pre-Treatment Biopsy: RNA-seq log2-transformed counts;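 as to all read-outs here: FFPE human tumor biopsies, exome-capture RNA-seq, reads aligned to GRCh37, counts normalized for GC content, length and depth, summed per gene, log2-transformed, samples paired before versus after therapy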
[3] = Breast Cancer, Post minus Pre, unpaired biopsies, log2-transformed counts
[4] = Breast Cancer, post- vs pre-treatment unpaired biopsies
[5] = Breast Cancer, unpaired, RNA-seq log2-transformed normalized counts
[6] = Colorectal Cancer, Post minus Pre, unpaired biopsies, log2-transformed counts
[7] = Colorectal Cancer, post- vs pre-treatment unpaired biopsies
[8] = Colorectal Cancer, unpaired, RNA-seq log2-transformed normalized counts
[9] = Glioblastoma, Post minus Pre, unpaired biopsies, log2-transformed counts
[10] = Glioblastoma, post- vs pre-treatment unpaired biopsies
[11] = Glioblastoma, unpaired, RNA-seq log2-transformed normalized counts
[12] = Non-Small Cell Lung Cancer, Post minus Pre, unpaired biopsies, log2-transformed counts
[13] = Non-Small Cell Lung Cancer, post- vs pre-treatment unpaired biopsies
[14] = Non-Small Cell Lung Cancer, unpaired, RNA-seq log2-transformed normalized counts
[15] = Biliary Cancer, Post minus Pre, unpaired biopsies, log2-transformed counts
[16] = Biliary Cancer, post- vs pre-treatment unpaired biopsies
[17] = Biliary Cancer, unpaired, RNA-seq log2-transformed normalized counts
[18] = Esophageal Cancer, Post minus Pre, unpaired biopsies, log2-transformed counts
[19] = Esophageal Cancer, post- vs pre-treatment unpaired biopsies
[20] = Esophageal Cancer, unpaired, RNA-seq log2-transformed normalized counts
[21] = Pancreatic Cancer, post minus pre, unpaired biopsies
[22] = Pancreatic Cancer, post vs pre, unpaired biopsies
[23] = Pancreatic Cancer, log2-transformed RNA-seq counts

bevacizumab
CD46 expression diff (CD46 expression [1]; [3]): 0.33 | CD46 expression Percentage change (CD46 expression [1]; [4]): 5.4% | CD46 expression Post (CD46 expression [1]; [5]): 6.34 | CD46 expression diff (CD46 expression [1]; [6]): 0.11 | CD46 expression Percentage change (CD46 expression [1]; [7]): 1.7% | CD46 expression Post (CD46 expression [1]; [8]): 6.53 | CD46 expression diff (CD46 expression [1]; Endometrial Cancer, post minus pre, unpaired biopsies): −0.26 | CD46 expression Percentage change (CD46 expression [1]; Endometrial Cancer, post vs pre, unpaired biopsies): −4.4% | CD46 expression Post (CD46 expression [1]; Endometrial Cancer, log2-transformed RNA-seq counts): 5.56 | CD46 expression Pre (CD46 expression [1]; Endometrial Cancer, pre-treatment biopsies, log2-transformed RNA-seq counts): 5.81 | CD46 expression diff (CD46 expression [1]; [9]): −0.02 | CD46 expression Percentage change (CD46 expression [1]; [10]): −0.4% | CD46 expression Post (CD46 expression [1]; [11]): 4.79 | CD46 expression diff (CD46 expression [1]; [12]): −0.11 | CD46 expression Percentage change (CD46 expression [1]; [13]): −1.8% | CD46 expression Post (CD46 expression [1]; [14]): 6.25 | CD46 expression diff (CD46 expression [1]; Ovarian Cancer, Post minus Pre, unpaired biopsies, log2-transformed counts): 0.03 | CD46 expression Percentage change (CD46 expression [1]; Ovarian Cancer, post- vs pre-treatment unpaired biopsies): 0.5% | CD46 expression Post (CD46 expression [1]; Ovarian Cancer, unpaired, RNA-seq log2-transformed normalized counts): 5.75 | CD46 expression diff (post minus pre) (CD46 expression [2]; Colorectal Cancer): 0.08 | Percent Change in CD46 expression (CD46 expression [2]; Colorectal Cancer): 1.3% | CD46 expression, Post-Treatment Biopsy (CD46 expression [2]; Colorectal Cancer): 6.33 | CD46 expression, Pre-Treatment Biopsy (CD46 expression [2]; Colorectal Cancer): 6.25 | CD46 expression diff (post minus pre) (CD46 expression [2]; Glioblastoma): 0.06 | Percent Change in CD46 expression (CD46 expression [2]; Glioblastoma): 1.3% | CD46 expression, Post-Treatment Biopsy (CD46 expression [2]; Glioblastoma): 4.64 | CD46 expression, Pre-Treatment Biopsy (CD46 expression [2]; Glioblastoma): 4.58 | CD46 expression diff (post minus pre) (CD46 expression [2]; Ovarian Cancer): −0.11 | Percent Change in CD46 expression (CD46 expression [2]; Ovarian Cancer): −1.9% | CD46 expression, Post-Treatment Biopsy (CD46 expression [2]; Ovarian Cancer): 5.54 | CD46 expression, Pre-Treatment Biopsy (CD46 expression [2]; Ovarian Cancer): 5.65

CC(O)(CS(=O)(=O)c1ccc(F)cc1)C(=O)Nc1ccc(C#N)c(C(F)(F)F)c1 (stereo not drawn) [bicalutamide]
CD46 expression diff (CD46 expression [1]; Prostate Cancer, Post minus Pre, unpaired biopsies, log2-transformed counts): −0.06 | CD46 expression Percentage change (CD46 expression [1]; Prostate Cancer, post- vs pre-treatment unpaired biopsies): −0.9% | CD46 expression diff (post minus pre) (CD46 expression [2]; Prostate Cancer): −0.24 | Percent Change in CD46 expression (CD46 expression [2]; Prostate Cancer): −3.8% | CD46 expression, Post-Treatment Biopsy (CD46 expression [2]; Prostate Cancer): 6.08

Cn1nnc2c(C(N)=O)ncn2c1=O [temozolomide]
CD46 expression diff (CD46 expression [1]; Endocrine Tumor, Post minus Pre, unpaired biopsies, log2-transformed counts): −0.04 | CD46 expression Percentage change (CD46 expression [1]; Endocrine Tumor, post- vs pre-treatment unpaired biopsies): −0.8% | CD46 expression Post (CD46 expression [1]; Endocrine Tumor, unpaired, RNA-seq log2-transformed normalized counts): 5.52 | CD46 expression diff (CD46 expression [1]; [9]): 0.08 | CD46 expression Percentage change (CD46 expression [1]; [10]): 1.6% | CD46 expression Post (CD46 expression [1]; [11]): 4.85 | CD46 expression diff (post minus pre) (CD46 expression [2]; Glioblastoma): 0.04 | Percent Change in CD46 expression (CD46 expression [2]; Glioblastoma): 0.8% | CD46 expression, Post-Treatment Biopsy (CD46 expression [2]; Glioblastoma): 4.80

durvalumab
CD46 expression diff (CD46 expression [1]; [12]): −0.03 | CD46 expression Percentage change (CD46 expression [1]; [13]): −0.5% | CD46 expression Post (CD46 expression [1]; [14]): 6.04 | CD46 expression diff (post minus pre) (CD46 expression [2]; Non-Small Cell Lung Cancer): 0.00 | Percent Change in CD46 expression (CD46 expression [2]; Non-Small Cell Lung Cancer): 0.0% | CD46 expression, Post-Treatment Biopsy (CD46 expression [2]; Non-Small Cell Lung Cancer): 5.95 | CD46 expression, Pre-Treatment Biopsy (CD46 expression [2]; Non-Small Cell Lung Cancer): 5.95

O=c1[nH]cc(F)c(=O)[nH]1 [fluorouracil]
CD46 expression diff (CD46 expression [1]; [15]): 0.00 | CD46 expression Percentage change (CD46 expression [1]; [16]): 0.0% | CD46 expression Post (CD46 expression [1]; [17]): 5.92 | CD46 expression diff (CD46 expression [1]; [3]): 0.06 | CD46 expression Percentage change (CD46 expression [1]; [4]): 1.0% | CD46 expression Post (CD46 expression [1]; [5]): 6.18 | CD46 expression diff (CD46 expression [1]; [6]): 0.06 | CD46 expression Percentage change (CD46 expression [1]; [7]): 0.9% | CD46 expression Post (CD46 expression [1]; [8]): 6.44 | CD46 expression diff (CD46 expression [1]; [18]): −0.06 | CD46 expression Percentage change (CD46 expression [1]; [19]): −1.0% | CD46 expression Post (CD46 expression [1]; [20]): 5.83 | CD46 expression diff (CD46 expression [1]; Gastric Cancer, post minus pre, unpaired biopsies): −0.14 | CD46 expression Percentage change (CD46 expression [1]; Gastric Cancer, post vs pre, unpaired biopsies): −2.4% | CD46 expression Post (CD46 expression [1]; Gastric Cancer, log2-transformed RNA-seq counts): 5.65 | CD46 expression diff (CD46 expression [1]; Head and Neck Squamous Cell Carcinoma, Post minus Pre, unpaired biopsies, log2-transformed counts): 0.03 | CD46 expression Percentage change (CD46 expression [1]; Head and Neck Squamous Cell Carcinoma, post- vs pre-treatment unpaired biopsies): 0.6% | CD46 expression Post (CD46 expression [1]; Head and Neck Squamous Cell Carcinoma, unpaired, RNA-seq log2-transformed normalized counts): 5.63 | CD46 expression diff (CD46 expression [1]; [21]): −0.15 | CD46 expression Percentage change (CD46 expression [1]; [22]): −2.5% | CD46 expression Post (CD46 expression [1]; [23]): 5.76 | CD46 expression diff (post minus pre) (CD46 expression [2]; Colorectal Cancer): −0.05 | Percent Change in CD46 expression (CD46 expression [2]; Colorectal Cancer): −0.8% | CD46 expression, Post-Treatment Biopsy (CD46 expression [2]; Colorectal Cancer): 6.27 | CD46 expression diff (post minus pre) (CD46 expression [2]; Esophageal Cancer): −0.31 | Percent Change in CD46 expression (CD46 expression [2]; Esophageal Cancer): −5.2% | CD46 expression, Post-Treatment Biopsy (CD46 expression [2]; Esophageal Cancer): 5.60 | CD46 expression diff (post minus pre) (CD46 expression [2]; Gastric Cancer): −0.09 | Percent Change in CD46 expression (CD46 expression [2]; Gastric Cancer): −1.5% | CD46 expression, Post-Treatment Biopsy (CD46 expression [2]; Gastric Cancer): 5.66 | CD46 expression diff (post minus pre) (CD46 expression [2]; Pancreatic Cancer): 0.09 | Percent Change in CD46 expression (CD46 expression [2]; Pancreatic Cancer): 1.5% | CD46 expression, Post-Treatment Biopsy (CD46 expression [2]; Pancreatic Cancer): 5.92 | subjects whose paired biopsies showed decreased CD46 expression (CD46 expression [2]; esophageal cancer, 10 of 13 subjects, FIG. 4): 77%

Nc1nc2c(c(=O)[nH]1)N(C=O)C(CNc1ccc(C(=O)N[C@@H](CCC(=O)O)C(=O)O)cc1)CN2 (stereo partly drawn) [leucovorin]
CD46 expression diff (CD46 expression [1]; [15]): 0.00 | CD46 expression Percentage change (CD46 expression [1]; [16]): 0.1% | CD46 expression Post (CD46 expression [1]; [17]): 5.92 | CD46 expression diff (CD46 expression [1]; [6]): 0.08 | CD46 expression Percentage change (CD46 expression [1]; [7]): 1.2% | CD46 expression Post (CD46 expression [1]; [8]): 6.46 | CD46 expression diff (CD46 expression [1]; [18]): −0.05 | CD46 expression Percentage change (CD46 expression [1]; [19]): −0.9% | CD46 expression Post (CD46 expression [1]; [20]): 5.84 | CD46 expression diff (CD46 expression [1]; Gastric Cancer, Post minus Pre, unpaired biopsies, log2-transformed counts): −0.11 | CD46 expression Percentage change (CD46 expression [1]; Gastric Cancer, post- vs pre-treatment unpaired biopsies): −1.8% | CD46 expression Post (CD46 expression [1]; Gastric Cancer, unpaired, RNA-seq log2-transformed normalized counts): 5.68 | CD46 expression diff (CD46 expression [1]; [21]): −0.15 | CD46 expression Percentage change (CD46 expression [1]; [22]): −2.5% | CD46 expression Post (CD46 expression [1]; [23]): 5.76 | CD46 expression diff (post minus pre) (CD46 expression [2]; Colorectal Cancer): −0.07 | Percent Change in CD46 expression (CD46 expression [2]; Colorectal Cancer): −1.0% | CD46 expression, Post-Treatment Biopsy (CD46 expression [2]; Colorectal Cancer): 6.30 | CD46 expression diff (post minus pre) (CD46 expression [2]; Esophageal Cancer): −0.14 | Percent Change in CD46 expression (CD46 expression [2]; Esophageal Cancer): −2.3% | CD46 expression, Post-Treatment Biopsy (CD46 expression [2]; Esophageal Cancer): 5.74 | CD46 expression diff (post minus pre) (CD46 expression [2]; Pancreatic Cancer): 0.09 | Percent Change in CD46 expression (CD46 expression [2]; Pancreatic Cancer): 1.5% | CD46 expression, Post-Treatment Biopsy (CD46 expression [2]; Pancreatic Cancer): 5.92

CNC(=O)c1cc(Oc2ccc(NC(=O)Nc3ccc(Cl)c(C(F)(F)F)c3)c(F)c2)ccn1 [regorafenib]
CD46 expression diff (CD46 expression [1]; [6]): 0.19 | CD46 expression Percentage change (CD46 expression [1]; [7]): 2.9% | CD46 expression Post (CD46 expression [1]; [8]): 6.63 | CD46 expression diff (post minus pre) (CD46 expression [2]; Colorectal Cancer): 0.25 | Percent Change in CD46 expression (CD46 expression [2]; Colorectal Cancer): 4.0% | CD46 expression, Post-Treatment Biopsy (CD46 expression [2]; Colorectal Cancer): 6.49

atezolizumab
CD46 expression diff (CD46 expression [1]; [3]): 0.07 | CD46 expression Percentage change (CD46 expression [1]; [4]): 1.3% | CD46 expression Post (CD46 expression [1]; [5]): 6.00 | CD46 expression diff (CD46 expression [1]; [12]): 0.00 | CD46 expression Percentage change (CD46 expression [1]; [13]): −0.1% | CD46 expression Post (CD46 expression [1]; [14]): 6.04 | CD46 expression diff (post minus pre) (CD46 expression [2]; Breast Cancer): −0.14 | Percent Change in CD46 expression (CD46 expression [2]; Breast Cancer): −2.4% | CD46 expression, Post-Treatment Biopsy (CD46 expression [2]; Breast Cancer): 5.99 | CD46 expression, Pre-Treatment Biopsy (CD46 expression [2]; Breast Cancer): 6.14
